Tested on: hemoglobin-haptoglobin complex
Assay: Stability of hemoglobin (as hemoglobin-haptoglobin complex) in samples preserved at 37° C. in preservation solution containing 1 unit/L haptoglobin, Hb measured by latex agglutination method (Examples 1 to 7)
Design: species or system human
Summary of the method: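 Hemoglobin (~300 µg/L) in 0.5% fecal suspension, or without feces, held at 37 °C for 0–21 days in 40 mmol/L HEPES pH 6.8, 0.1% BSA, 0.1% NaN3, 1 unit/L haptoglobin, with 0–100 mmol/L phenylboronic acid ± sugars. Hb quantified by latex agglutination with anti-human Hb rabbit polyclonal; recovery (%) relative to day 0.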

[1] = Feces 1, phenylboronic acid 0.5 mmol/L, 37° C., 0 days
[2] = Feces 1, phenylboronic acid 0.5 mmol/L, 37° C., 7 days
[3] = Feces 1, phenylboronic acid 0.5 mmol/L, 37° C., 14 days
[4] = Feces 1, phenylboronic acid 0.5 mmol/L, 37° C., 21 days
[5] = Feces 1, phenylboronic acid 1 mmol/L, 37° C., 0 days
[6] = Feces 1, phenylboronic acid 1 mmol/L, 37° C., 14 days
[7] = Feces 1, phenylboronic acid 1 mmol/L, 37° C., 21 days
[8] = Feces 1, phenylboronic acid 15 mmol/L, 37° C., 0 days
[9] = Feces 1, phenylboronic acid 15 mmol/L, 37° C., 7 days
[10] = Feces 1, phenylboronic acid 15 mmol/L, 37° C., 14 days
[11] = Feces 1, phenylboronic acid 15 mmol/L, 37° C., 21 days
[12] = Feces 1, phenylboronic acid 50 mmol/L, 37° C., 0 days
[13] = Feces 1, phenylboronic acid 50 mmol/L, 37° C., 7 days
[14] = Feces 1, phenylboronic acid 50 mmol/L, 37° C., 14 days
[15] = Feces 1, phenylboronic acid 50 mmol/L, 37° C., 21 days
[16] = Feces 1, phenylboronic acid 100 mmol/L, 37° C., 0 days
[17] = Feces 1, phenylboronic acid 100 mmol/L, 37° C., 7 days
[18] = Feces 1, phenylboronic acid 100 mmol/L, 37° C., 14 days
[19] = Feces 1, phenylboronic acid 100 mmol/L, 37° C., 21 days
[20] = Feces 2, phenylboronic acid 0.5 mmol/L, 37° C., 0 days
[21] = Feces 2, phenylboronic acid 0.5 mmol/L, 37° C., 7 days
[22] = Feces 2, phenylboronic acid 0.5 mmol/L, 37° C., 14 days
[23] = Feces 2, phenylboronic acid 0.5 mmol/L, 37° C., 21 days
[24] = Feces 2, phenylboronic acid 1 mmol/L, 37° C., 7 days
[25] = Feces 2, phenylboronic acid 1 mmol/L, 37° C., 14 days
[26] = Feces 2, phenylboronic acid 1 mmol/L, 37° C., 21 days
[27] = Feces 2, phenylboronic acid 15 mmol/L, no sugar, 0 days at 37° C.
[28] = Feces 2, phenylboronic acid 15 mmol/L, no sugar, 7 days at 37° C.
[29] = Feces 2, phenylboronic acid 15 mmol/L, no sugar, 14 days at 37° C.
[30] = Feces 2, phenylboronic acid 15 mmol/L, no sugar, 21 days at 37° C.
[31] = Feces 2, phenylboronic acid 15 mmol/L, 37° C., 0 days
[32] = Feces 2, phenylboronic acid 15 mmol/L, 37° C., 7 days
[33] = Feces 2, phenylboronic acid 15 mmol/L, 37° C., 14 days
[34] = Feces 2, phenylboronic acid 15 mmol/L, 37° C., 21 days
[35] = Feces 2, phenylboronic acid 50 mmol/L, 37° C., 0 days
[36] = Feces 2, phenylboronic acid 50 mmol/L, 37° C., 7 days
[37] = Feces 2, phenylboronic acid 50 mmol/L, 37° C., 21 days
[38] = Feces 2, phenylboronic acid 100 mmol/L, 37° C., 0 days
[39] = Feces 2, phenylboronic acid 100 mmol/L, 37° C., 7 days
[40] = Feces 2, phenylboronic acid 100 mmol/L, 37° C., 14 days
[41] = Feces 2, phenylboronic acid 100 mmol/L, 37° C., 21 days

For OB(O)c1ccccc1 [phenylboronic acid], the “recovery ratio of hemoglobin in the samples” value (Feces 1, Feces 2, Feces 3, phenylboronic acid at 0.5 mmol/L or more) was “improved”, the Hb concentration [1] was 279 µg/L and the “Recovery ratio with respect to Hb concentration after 0 days” value (from here on “Recovery ratio … after 0 days”) [1] was 100%. For the same compound, the Hb concentration [2] was 181 µg/L, the “Recovery ratio … after 0 days” value [2] was 65% and the Hb concentration [3] was 147 µg/L. The “Recovery ratio … after 0 days” value [3] was 53%, the Hb concentration [4] was 129 µg/L and the “Recovery ratio … after 0 days” value [4] was 46%. The Hb concentration [5] was 275 µg/L, the “Recovery ratio … after 0 days” value [5] was 100% and the “Recovery ratio … after 0 days” value (Feces 1, phenylboronic acid 1 mmol/L, 37° C., 7 days) was 66%. For the same compound, the Hb concentration [6] was 148 µg/L, the “Recovery ratio … after 0 days” value [6] was 54% and the Hb concentration [7] was 125 µg/L. The “Recovery ratio … after 0 days” value [7] was 45%, the Hb concentration [8] was 302 µg/L and the “Recovery ratio … after 0 days” value [8] was 100%. For the same compound, the Hb concentration [9] was 243 µg/L, the “Recovery ratio … after 0 days” value [9] was 80% and the Hb concentration [10] was 239 µg/L. The “Recovery ratio … after 0 days” value [10] was 79%, the Hb concentration [11] was 224 µg/L and the “Recovery ratio … after 0 days” value [11] was 74%. The Hb concentration [12] was 290 µg/L, the “Recovery ratio … after 0 days” value [12] was 100% and the Hb concentration [13] was 230 µg/L. The “Recovery ratio … after 0 days” value [13] was 79%, the Hb concentration [14] was 204 µg/L and the “Recovery ratio … after 0 days” value [14] was 70%. The Hb concentration [15] was 185 µg/L, the “Recovery ratio … after 0 days” value [15] was 64% and the Hb concentration [16] was 271 µg/L. The “Recovery ratio … after 0 days” value [16] was 100%, the Hb concentration [17] was 186 µg/L and the “Recovery ratio … after 0 days” value [17] was 69%. For the same compound, the Hb concentration [18] was 137 µg/L, the “Recovery ratio … after 0 days” value [18] was 51% and the Hb concentration [19] was 97 µg/L. For the same compound, the “Recovery ratio … after 0 days” value [19] was 36%, the Hb concentration [20] was 271 µg/L and the “Recovery ratio … after 0 days” value [20] was 100%. The Hb concentration [21] was 147 µg/L, the “Recovery ratio … after 0 days” value [21] was 54% and the Hb concentration [22] was 113 µg/L. The “Recovery ratio … after 0 days” value [22] was 42%, the Hb concentration [23] was 91 µg/L and the “Recovery ratio … after 0 days” value [23] was 34%. For the same compound, the “Recovery ratio … after 0 days” value (Feces 2, phenylboronic acid 1 mmol/L, 37° C., 0 days) was 100%, the Hb concentration [24] was 166 µg/L and the “Recovery ratio … after 0 days” value [24] was 58%. The Hb concentration [25] was 136 µg/L, the “Recovery ratio … after 0 days” value [25] was 48% and the Hb concentration [26] was 116 µg/L. The “Recovery ratio … after 0 days” value [26] was 41%, the Hb concentration [27] was 283 µg/L and the “Recovery ratio … after 0 days” value [27] was 100%. The Hb concentration [28] was 249 µg/L, the “Recovery ratio … after 0 days” value [28] was 88% and the Hb concentration [29] was 214 µg/L. For the same compound, the “Recovery ratio … after 0 days” value [29] was 76%, the Hb concentration [30] was 191 µg/L and the “Recovery ratio … after 0 days” value [30] was 67%. For the same compound, the Hb concentration [31] was 283 µg/L, the “Recovery ratio … after 0 days” value [31] was 100% and the Hb concentration [32] was 249 µg/L. For the same compound, the “Recovery ratio … after 0 days” value [32] was 88%, the Hb concentration [33] was 214 µg/L and the “Recovery ratio … after 0 days” value [33] was 76%. For the same compound, the Hb concentration [34] was 191 µg/L, the “Recovery ratio … after 0 days” value [34] was 67% and the Hb concentration [35] was 269 µg/L. The “Recovery ratio … after 0 days” value [35] was 100%, the Hb concentration [36] was 214 µg/L and the “Recovery ratio … after 0 days” value [36] was 80%. For the same compound, the “Recovery ratio … after 0 days” value (Feces 2, phenylboronic acid 50 mmol/L, 37° C., 14 days) was 65%, the Hb concentration [37] was 149 µg/L and the “Recovery ratio … after 0 days” value [37] was 55%. The Hb concentration [38] was 250 µg/L, the “Recovery ratio … after 0 days” value [38] was 100% and the Hb concentration [39] was 139 µg/L. For the same compound, the “Recovery ratio … after 0 days” value [39] was 56%, the Hb concentration [40] was 80 µg/L and the “Recovery ratio … after 0 days” value [40] was 32%. For the same compound, the Hb concentration [41] was 36 µg/L, the “Recovery ratio … after 0 days” value [41] was 14% and the Hb concentration (Feces 3, phenylboronic acid 0.5 mmol/L, 37° C., 0 days) was 283 µg/L.

Source: patent US12215140B2, “Method of stabilizing protein contained in specimen and solution for stabilizing protein contained in specimen” (EIKEN KAGAKU KABUSHIKI KAISHA, priority 2018, dated 2025)
